The results in this text go back to patent publication EP0362382A1, “METHOD OF STERILIZING PLANT POLLEN” (VSESOJUZNY NAUCHNO-ISSLEDOVATELSKY INST. SELSKOKHOZYAISTV. …, priority 1988, dated 1989).

One test concerns Tritikale. Nature of the test: Field test of gametocidal activity (sterilisation of anthers), triticale. It is filed as in vivo. The conditions noted are these: PRAG 109; V. Periode der Organogenese; 1,5%ige wäßrige Emulsion; 15 kg/ha. From the text: (§1) Die gametozide Aktivitat der erfindungsgemäßen Sterilisationsmittel war im Feldversuch in verschiedenen bodenklimatischen Zonen mit Teilstücken von 10 m^2 Größe in drei- bis viermaliger Wiederholung festgestellt. Jedes Sterilisationsmittel wurde mindenstens 5 Jahre lang geprüft.
(§2) Die Entwicklung der Perioden der Organogenese wird zytologisch überwacht. Die Behandlung von Pflanzen mit dem Sterilisationsmittel erfolgt am Anfang der fünften Periode der Organogenese nach Kupermann.
(§3) Mit dem Ährenschieben verwirklicht man die Isolierung von Hauptähren und anderen Stockwerken in Pergamentbeuteln. Bei Weizen und Tritikale werden Einzelisolatoren benutzt. Bei Roggen schließt man je Ähre 5 bis 7 verschiedene nebeneinander befindliche Pflanzen unter einen gemeinsamen Isolator ein. Bei Hierse wird jede Rispe getrennt isoliert. Der Sterilitätsprozentsatz (X) für Weizen, Roggen, Tritikale und Hirse wird nach der Formel [formula] ermittelt.
(§4) Die Kornzahl in nicht isolierten Ähren von Kontrollpflanzen wird bedingt für 100 % Ansetzen bei freier Bestäubung angenommen.
(§5) Um zuverlässige Angaben zu erhalten, verwendet man 20 bis 25 Isolatoren jeder Wiederholung für Weizen und Tritikale, 10 .bis 15 Isolatoren jeder Wiederholung für Roggen und Hirse.
Pflanzen von Tritikale PRAG 109 werden in der V. Periode der Organogenese (nach Kupermann) mit 1,5%iger wäßriger Emulsion von Bis(di-n-butyläther) der δ, δ' -Thiodivaleriansäure, 4-Kaxboxybutyldezylsulfid, Bis(2-Äthylhexyläther) der δ, δ' -Thiodivaleriansäure behandelt. Die Emulsion enthält 0,1 Masse% Kalziumalkylbenzolsulfonat mit 12 bis 14 Kohlenstoffatomen und 0,01 Masse% Tetrahydrofuran. Der Verbrauch an Präparat beträgt 15 kg/ha. Als Kontrolle dienen Pflanzen, behandelt mit einem Verdünner ohne Sterilisationsmittel. Die Prüfergebnisse sind in der Tabelle 12 angegeben. […] Periode der Organogenese erhalten.
Pflanzen von Tritikale der Sorte Amphidiploid 206 werden in der V. Periode der Organogenese (nach Kupermann) mit 1,5%iger wäßriger Emulsion von Natriumsalz der δ, δ'-Thiodivaleriansäure, δ, δ' -Sulfonyldivaleriansäure Kaliumsalz der d , δ' -Sulfonyldivaleriansäure behandelt. Die Emulsion enthalt 0,1 Masse% Kalziumalkylbenzolsulfonat mit 12 bis 14 Kohlenstoffatomen und 0,01 Masse% Dodezylsulfat. Der Verbrauch an Präparat beträgt 9 kg/ha. Als Kontrolle dienen Pflanzen, behandelt mit einem Verdünner ohne Sterilisationsmittel. Die Prüfergebnisse sind in der Tabelle 13 angegeben. […] Periode der Organogenese erhalten.
As for `CCCCOC(=O)CCCCSCCCCC(=O)OCCCC` [Beispiel 59, Bis(di-n-butyläther) der δ, δ' -Thiodivaleriansäure], the “Anzahl von Körnern der Ähre bei freier Bestäubung” value is listed as 40,1, the “Anzahl von Körnern der Ähre im Isolator” value is on record as 0,3, the “Prozentsatz der Sterilität” value is reported as 99,3% and the “Prozentsatz des Ansetzens von Körnern bei freier Bestäubung” value is 87,6%.

`CCCCCCCCCCSCCCCC(=O)O` [Beispiel 60, 4-Kaxboxybutyldezylsulfid]: the “Anzahl von Körnern der Ähre bei freier Bestäubung” value was 42,3, the “Anzahl von Körnern der Ähre im Isolator” value is on record as 0,0, the “Prozentsatz der Sterilität” value was 100,0% and the “Prozentsatz des Ansetzens von Körnern bei freier Bestäubung” value was 92,4%.

Take `CCCCC(CC)COC(=O)CCCCSCCCCC(=O)OCC(CC)CCCC` (stereo not drawn) [Beispiel 61, Bis(2-Äthylhexyläther) der δ, δ' -Thiodivaleriansäure]: the “Anzahl von Körnern der Ähre bei freier Bestäubung” value is listed as 40,8, the “Anzahl von Körnern der Ähre im Isolator” value is given as 0,0, the “Prozentsatz der Sterilität” value is given as 100,0% and the “Prozentsatz des Ansetzens von Körnern bei freier Bestäubung” value was 89,1%.

Staying with this test, now noted: Sorte Amphidiploid 206; V. Periode der Organogenese; 1,5%ige wäßrige Emulsion; 9 kg/ha.
As for `O=C(O)CCCCSCCCCC(=O)O` [Beispiel 62, Natriumsalz der δ, δ'-Thiodivaleriansäure], the “Anzahl von Körnern der Ähre bei freier Bestäubung” value was 32,5, the “Anzahl von Körnern der Ähre im Isolator” value is recorded as 0,9, the “Prozentsatz der Sterilität” value is 97,2% and the “Prozentsatz des Ansetzens von Körnern bei freier Bestäubung” value is reported as 88,8%.

For `O=C(O)CCCCS(=O)(=O)CCCCC(=O)O` [Beispiel 63, δ, δ' -Sulfonyldivaleriansäure], the “Anzahl von Körnern der Ähre bei freier Bestäubung” value is reported as 30,1, the “Anzahl von Körnern der Ähre im Isolator” value is reported as 0,1, the “Prozentsatz der Sterilität” value is 99,7% and the “Prozentsatz des Ansetzens von Körnern bei freier Bestäubung” value is recorded as 82,2%.

As to `O=C(O)CCCCS(=O)(=O)CCCCC(=O)O` [Beispiel 64, Kaliumsalz der d , δ' -Sulfonyldivaleriansäure], the “Anzahl von Körnern der Ähre bei freier Bestäubung” value is 29,8, the “Anzahl von Körnern der Ähre im Isolator” value is on record as 0,0, the “Prozentsatz der Sterilität” value is listed as 100,0% and the “Prozentsatz des Ansetzens von Körnern bei freier Bestäubung” value is 81,4%.

The test system of a further test is tetraploidem Roggen. Nature of the test: Field test of gametocidal activity (sterilisation of anthers), tetraploid rye. It is filed as in vivo. The conditions noted are these: Sorte Belta; V. Periode der Organogenese; 1%ige wäßrige Emulsion; 6 kg/ha.
Text: as §1, §2, §3, §4, §5
Pflanzen von tetraploidem Roggen Sorte Belta werden in der V. Periode der Organogenese (nach Kupermann) mit 1%iger wäßriger Emulsion von d, δ' -Thiodivaleriansäure, Natriumsalz der δ, δ' -Thiodivaleriansäure, δ, δ' -Sulfonylvaleriansäure, Natriumsalz der δ, δ' -Sulfonyldivaleriansäure, Kaliumsalz der d, δ' -Sulfonyldivaleriansäure, Bis(di-n-butyläther) der δ, δ' -Thiodivaleriansäure, Bis(2-Äthylhexyläther) der δ, δ'-Thiodivaleriansäure, 4-Karboxybutyldezylsulfid behandelt. Die Emulsion enthält 0,1 Masse% Kalziumalkylbenzolaulfonat und 0,01 Masse% Dimethylsulfoxid. Der Verbrauch an Präparat beträgt 6 kg/ha. Als Kontrolle dienen Pflanzen, behandelt mit einem Verdünner ohne Sterilisationsmittel. Die Prüfergebnisse sind in der Tabelle 11 angegeben. […] Periode der Organogese erhalten.
As for `O=C(O)CCCCSCCCCC(=O)O` [Beispiel 51, d, δ' -Thiodivaleriansäure], the “Anzahl von Körnern der Ähre bei freier Bestäubung” value is given as 32,9, the “Anzahl von Körnern der Ähre im Isolator” value is 0,3, the “Prozentsatz der Sterilität” value is 99,3% and the “Prozentsatz des Ansetzens von Körnern bei freier Bestäubung” value is recorded as 74,4%.

Take `O=C(O)CCCCSCCCCC(=O)O` [Beispiel 52, Natriumsalz der δ, δ' -Thiodivaleriansäure]: the “Anzahl von Körnern der Ähre bei freier Bestäubung” value is given as 40,6, the “Anzahl von Körnern der Ähre im Isolator” value is 0,1, the “Prozentsatz der Sterilität” value is recorded as 99,8% and the “Prozentsatz des Ansetzens von Körnern bei freier Bestäubung” value was 91,8%.

For the compound `O=C(O)CCCCS(=O)(=O)CCCCC(=O)O` [Beispiel 53, δ, δ' -Sulfonylvaleriansäure], the “Anzahl von Körnern der Ähre bei freier Bestäubung” value is listed as 39,0, the “Anzahl von Körnern der Ähre im Isolator” value is 0,0, the “Prozentsatz der Sterilität” value is listed as 100,0% and the “Prozentsatz des Ansetzens von Körnern bei freier Bestäubung” value was 88,2%.

As to `O=C(O)CCCCS(=O)(=O)CCCCC(=O)O` [Beispiel 54, Natriumsalz der δ, δ' -Sulfonyldivaleriansäure], the “Anzahl von Körnern der Ähre bei freier Bestäubung” value was 34,6, the “Anzahl von Körnern der Ähre im Isolator” value was 0,0, the “Prozentsatz der Sterilität” value is on record as 100,0% and the “Prozentsatz des Ansetzens von Körnern bei freier Bestäubung” value is listed as 78,2%.

For the compound `O=C(O)CCCCS(=O)(=O)CCCCC(=O)O` [Beispiel 55, Kaliumsalz der d, δ' -Sulfonyldivaleriansäure], the “Anzahl von Körnern der Ähre bei freier Bestäubung” value is 34,0, the “Anzahl von Körnern der Ähre im Isolator” value is on record as 0,0, the “Prozentsatz der Sterilität” value is reported as 100,0% and the “Prozentsatz des Ansetzens von Körnern bei freier Bestäubung” value is given as 76,9%.

With `CCCCOC(=O)CCCCSCCCCC(=O)OCCCC` [Beispiel 56, Bis(di-n-butyläther) der δ, δ' -Thiodivaleriansäure], the “Anzahl von Körnern der Ähre bei freier Bestäubung” value is on record as 38,2, the “Anzahl von Körnern der Ähre im Isolator” value is on record as 0,0, the “Prozentsatz der Sterilität” value is 100,0% and the “Prozentsatz des Ansetzens von Körnern bei freier Bestäubung” value is recorded as 86,7%.

With `CCCCC(CC)COC(=O)CCCCSCCCCC(=O)OCC(CC)CCCC` (stereo not drawn) [Beispiel 57, Bis(2-Äthylhexyläther) der δ, δ'-Thiodivaleriansäure], the “Anzahl von Körnern der Ähre bei freier Bestäubung” value was 42,7, the “Anzahl von Körnern der Ähre im Isolator” value is reported as 0,0, the “Prozentsatz der Sterilität” value is 100,0% and the “Prozentsatz des Ansetzens von Körnern bei freier Bestäubung” value was 96,6%.

On to `CCCCCCCCCCSCCCCC(=O)O` [Beispiel 58, 4-Karboxybutyldezylsulfid], for which the “Anzahl von Körnern der Ähre bei freier Bestäubung” value is given as 40,3, the “Anzahl von Körnern der Ähre im Isolator” value is 0,0, the “Prozentsatz der Sterilität” value was 100,0% and the “Prozentsatz des Ansetzens von Körnern bei freier Bestäubung” value is listed as 91,2%.

Another test deals with Sonnenblume. Nature of the test: Field test of chemical sterilisation of sunflower pollen. It is filed as in vivo. The conditions noted are these: Linie BK-373 (WK-373); V. Periode der Organogenese; Beispiel 78: 2%ige, 79: 0,2%ige Emulsion.
Text: as §1, §2
Zur Kontrolle der chemischen Sterilisation des Sonnenblumenpollens werden für jede Verbindung 45 behandelte Pflanzen jeder Wiederholung benutzt, wobei 15 Pflanzen von denen zwecks Selbsbestäubung isoliert werden, Blütenkorbchen anderer 15 Pflanzen mit einem Pollengemisch, gesammelt von 20 bis 25 behandelten isolierten Körbchen, bestäubt werden, und 15 Pflanzen für freie Bestäubung gelassen werden, damit das Ansetzen von Achänen mit dem Pollen der väterlichen Form kontrolliert werden kann.
Man beurteilt die Pollensterilität von Pflanzen der Sonnenblume nach der Pollenfertilität und -keimfähigkeit, nach den morphologischen Besonderheiten von Spermien und nach der Fähigkeit von Achänen zum Ansetzen bei der Bestäubung der behandelten isolierten Pflanzen mit dem Pollen der unbehandelten väterlichen Form. Die Lebensfähigkeit der Eizelle wird nach der Samenbildung von behandelten Pflanzen bei freier Bestäubung mit der väterlichen Form bestimmt.
Man behandelt die Sonnenblume Sorte BHNNMK 8931 (WNIIMK 8931) in der V. Periode der Organogenese mit 0,5%iger wäßriger Emulsion von 4-Karboxybutyldezylsulfid, mit 1%iger Emulsion der δ, δ' -Sulfonyldivaleriansäure, 2%iger Emulsion von Bis(2-äthylhexyläther) der δ, δ' -Thiodivaleriansäure; die Sonnenblume der Linie BK-373 (WK-373) mit 2%iger Emulsion von Bis(2-äthylhexyläther) der δ δ' --Thiodivaleriansäure, mit 0,2%iger Emulsion von Bis(di--n-butyläther) der δ, δ' -Thiodivaleriansäure; die Sonnenblume der Linie BK=364 (WK-365) mit 2%iger wäßriger Emulsion von Bis(2-äthylhexyläther) der δ, δ' -Thirodivaleriansäure, mit 0,2%iger Emulsion von Bis(di-n-butyläther) der δ, δ' -Thiodivaleriansäure. Die Emulsion enthält 0,1 Masse% Kalziumalkylbenzolsulfonat mit 12 bis 14 Kohlenstoffatomen und 0,01 Masse% Dimethylsulfoxid. Als Kontrolle dienen Pflanzen, behandelt mit einem Verdünner ohne Sterilisationsmittel. Die Prüfergebnisse sind in der Tabelle 17 angegeben. […] Periode der Organogenese erhalten.
For the compound `CCCCC(CC)COC(=O)CCCCSCCCCC(=O)OCC(CC)CCCC` (stereo not drawn) [Beispiel 78, Bis(2-äthylhexyläther) der δ δ' --Thiodivaleriansäure], the “Prozentsatz der Sterilität” value is on record as 100,0% and the “Prozentsatz des Ansetzens von Achänen bei freier Bestäubung” value is reported as 60,7%.

For the compound `CCCCOC(=O)CCCCSCCCCC(=O)OCCCC` [Beispiel 79, Bis(di--n-butyläther) der δ, δ' -Thiodivaleriansäure], the “Prozentsatz der Sterilität” value is listed as 100,0% and the “Prozentsatz des Ansetzens von Achänen bei freier Bestäubung” value is listed as 62,7%.

The same test, now with this note: Sorte ВНИИМК 8931 (WNIIMK 8931); V. Periode der Organogenese; Beispiel 75: 0,5%ige, 76: 1%ige, 77: 2%ige Emulsion.
For `CCCCCCCCCCSCCCCC(=O)O` [Beispiel 75, 4-Karboxybutyldezylsulfid], the “Prozentsatz der Sterilität” value was 100,0% and the “Prozentsatz des Ansetzens von Achänen bei freier Bestäubung” value is 82,9%.

Consider `O=C(O)CCCCS(=O)(=O)CCCCC(=O)O` [Beispiel 76, δ, δ' -Sulfonyldivaleriansäure], for which the “Prozentsatz der Sterilität” value is listed as 100,0% and the “Prozentsatz des Ansetzens von Achänen bei freier Bestäubung” value is 71,6%.

Take `CCCCC(CC)COC(=O)CCCCSCCCCC(=O)OCC(CC)CCCC` (stereo not drawn) [Beispiel 77, Bis(2-äthylhexyläther) der δ, δ' -Thiodivaleriansäure]: the “Prozentsatz der Sterilität” value was 100,0% and the “Prozentsatz des Ansetzens von Achänen bei freier Bestäubung” value is given as 82,1%.
